In ChEMBL document CHEMBL4417641, “Use of 2-(substituted phenylamino)benzoic acid fto inhibitor in treating leukemia” (2018):
Activity calls are given as the source filed them. The rule behind the calls is not given here.

What was measured:
[1] = Cytotoxicity against human MM6 cells assessed as inhibition of cell growth incubated for 72 hrs by MTS assay; assay type: functional, cell-based
[2] = tested on: NB-4; assay: Cytotoxicity against human NB4 cells assessed as inhibition of cell growth incubated for 72 hrs by MTS assay relative to control; assay type: functional
[3] = tested on: NB-4; assay: Cytotoxicity against human NB4 cells assessed as inhibition of cell growth incubated for 72 hrs by MTS assay; assay type: functional, cell-based; settings: NB-4, 72 h
[4] = biological target: Alpha-ketoglutarate-dependent dioxygenase FTO (Homo sapiens, UniProt Q9C0B1); assay: Inhibition of FTO (unknown origin) assessed as reduction in demethylation using 39nt-m6 A-ssDNA and 2OG incubated for 2 hrs by non-denaturing polyacrylamide electrophoresis method
[5] = tested on: NB-4; assay: Cytotoxicity against human NB4 cells assessed as inhibition of cell growth incubated for 48 hrs by MTS assay; assay type: functional, cell-based; settings: NB-4, 48 h
[6] = Cytotoxicity against human MM6 cells assessed as inhibition of cell growth incubated for 72 hrs by MTS assay relative to control; assay type: functional
[7] = Cytotoxicity against human MM6 cells assessed as inhibition of cell growth incubated for 48 hrs by MTS assay; assay type: functional, cell-based
[8] = tested on: MONO-MAC-6; assay: Antitumor activity against human MONO-MAC-6 cells xenografted in NSG mouse assessed as reduction in tumor cell transplantation efficiency at 2 mg/kg, ip dosed for ten consecutive days and measured after 40 to days post treatment; assay type: functional, organism-based
[9] = tested on: MONO-MAC-6; assay: Antitumor activity against human MONO-MAC-6 cells xenografted in NSG mouse assessed as mouse survival at 2 mg/kg, ip dosed for ten consecutive days and measured after 40 days post treatment; assay type: functional; settings: MONO-MAC-6, ip, 960 h
[10] = tested on: MONO-MAC-6; assay: Antitumor activity against human MONO-MAC-6 cells xenografted in NSG mouse assessed as mouse survival at 2 mg/kg, ip dosed for ten consecutive days and measured after 62 days post treatment; assay type: functional; settings: MONO-MAC-6, ip, 1488 h
[11] = tested on: MONO-MAC-6; assay: Antitumor activity against human MONO-MAC-6 cells xenografted in NSG mouse assessed as mouse survival at 2 mg/kg, ip dosed for ten consecutive days and measured after 120 days post treatment; assay type: functional; settings: MONO-MAC-6, ip, 2880 h
[12] = tested on: MONO-MAC-6; assay: Antitumor activity against human MONO-MAC-6 cells xenografted in NSG mouse assessed as improvement in liver swelling by measuring liver weight at 2 mg/kg, ip dosed for ten consecutive days (reference value: 2200 mg); assay type: functional
[13] = tested on: MONO-MAC-6; assay: Antitumor activity against human MONO-MAC-6 cells xenografted in NSG mouse assessed as mouse survival at 2 mg/kg, ip dosed for ten consecutive days and measured after 55 days post treatment; assay type: functional; settings: MONO-MAC-6, ip, 1320 h
[14] = tested on: MONO-MAC-6; assay: Antitumor activity against human MONO-MAC-6 cells xenografted in NSG mouse assessed as improvement in spleen swelling by measuring spleen weight at 2 mg/kg, ip dosed for ten consecutive days (reference value: 55 mg); assay type: functional
[15] = tested on: MONO-MAC-6; assay: Antitumor activity against human MONO-MAC-6 cells xenografted in NSG mouse assessed as mouse survival at 2 mg/kg, ip dosed for ten consecutive days and measured after 60 days post treatment; assay type: functional; settings: MONO-MAC-6, ip, 1440 h

Chain of Alpha-ketoglutarate-dependent dioxygenase FTO (Q9C0B1 whole entry): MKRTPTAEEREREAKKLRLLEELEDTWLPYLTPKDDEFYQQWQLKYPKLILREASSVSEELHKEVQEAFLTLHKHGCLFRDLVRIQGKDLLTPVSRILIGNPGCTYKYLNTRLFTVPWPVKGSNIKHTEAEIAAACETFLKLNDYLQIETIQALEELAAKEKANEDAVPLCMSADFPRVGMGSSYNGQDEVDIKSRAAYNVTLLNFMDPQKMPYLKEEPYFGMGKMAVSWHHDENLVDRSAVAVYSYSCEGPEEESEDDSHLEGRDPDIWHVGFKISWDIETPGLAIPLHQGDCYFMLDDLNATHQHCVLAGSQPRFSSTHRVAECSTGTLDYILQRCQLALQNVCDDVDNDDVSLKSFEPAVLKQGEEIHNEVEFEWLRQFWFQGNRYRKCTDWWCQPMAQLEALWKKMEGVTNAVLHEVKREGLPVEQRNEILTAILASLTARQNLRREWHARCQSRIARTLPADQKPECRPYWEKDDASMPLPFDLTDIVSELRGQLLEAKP

| SMILES | IC50 [1] | growth inhibition (GI) [2] | IC50 [3] | IC50 [4] | growth inhibition (GI) [6] | other results |
| --- | --- | --- | --- | --- | --- | --- |
| Cc1noc(C)c1-c1cc(Cl)c(Nc2ccccc2-c2noc(=O)[nH]2)c(Cl)c1 | 5.8 µM | 100% | 5.3 µM | 1.1 µM | 100% | IC50 [5]: 6.3 µM; IC50 [7]: 9.9 µM |
| Cc1cc(C)n(-c2cc(Cl)c(Nc3ccccc3C(=O)O)c(Cl)c2)n1 |  |  |  | 30 to 50 µM |  |  |
| Cc1noc(C)c1-c1cc(Cl)c(Nc2ccccc2C(=O)NO)c(Cl)c1 | 1.5 µM | 100% | 0.8 µM | 1.6 µM | 100% | Activity [8]: Active; survival at 2 mg/kg [9]: 80%; survival at 2 mg/kg [10]: 30%; survival at 2 mg/kg [11]: 15%; Activity [12]: 800 mg; IC50 [5]: 4.7 µM; survival at 2 mg/kg [13]: 60%; Activity [14]: 18 mg; survival at 2 mg/kg [15]: 40%; IC50 [7]: 10.4 µM |
| Cc1noc(C)c1-c1cc(Cl)c(Nc2ccccc2C(=O)O)c(Cl)c1 | 23.6 µM | 70% | 44.8 µM |  | 75% |  |
| O=C(O)c1ccc(-c2cc(Cl)c(Nc3ccccc3C(=O)O)c(Cl)c2)s1 |  |  |  | 1.2 µM |  |  |
| Cc1noc(C)c1-c1cc(Cl)c(Nc2ccccc2-c2nn[nH]n2)c(Cl)c1 |  | 26% |  |  | 23% |  |
| O=C(O)c1ccccc1Nc1c(Cl)cc(-c2ccncc2)cc1Cl |  | 39% |  | 4.6 µM | 46% |  |
| Cc1n[nH]c(C)c1-c1cc(Cl)c(Nc2ccccc2C(=O)O)c(Cl)c1 |  | 20% |  |  | 18% |  |
| O=C(O)c1ccccc1Nc1c(Cl)cc(-c2ccn[nH]2)cc1Cl |  | 25% |  | 7.6 µM | 29% |  |
